Source: BigSolDB 2.1

CCS(=O)(=O)O.COC(=O)c1ccc2c(C(=Nc3ccc(N(C)C(=O)CN4CCN(C)CC4)cc3)c3ccccc3)c(O)[nH]c2c1
solubility (mole fraction)
Conditions | in DMAc | in DMF | in acetone | in acetonitrile | in dichloromethane | in ethanol | in isopropanol | in methanol | in n-butanol | in n-propanol
278.15 K | 0.000745 | 0.000994 | 3.21e-06 | 9.42e-06 | 0.000125 | 0.00015 | 1.43e-05 | 0.00126 | 1.21e-05 | 4.29e-05
283.15 K | 0.000878 | 0.00129 | 4.13e-06 | 1.42e-05 | 0.000148 | 0.000179 | 1.93e-05 | 0.00149 | 1.44e-05 | 6.92e-05
288.15 K | 0.0011 | 0.00145 | 4.97e-06 | 1.75e-05 | 0.000161 | 0.000214 | 2.57e-05 | 0.00169 | 1.82e-05 | 8.1e-05
293.15 K | 0.00129 | 0.00165 | 5.92e-06 | 2.17e-05 | 0.000175 | 0.000253 | 3.39e-05 | 0.00203 | 2.33e-05 | 0.000103
298.15 K | 0.00156 | 0.00182 | 6.97e-06 | 2.89e-05 | 0.000199 | 0.000298 | 4.44e-05 | 0.00238 | 2.7e-05 | 0.000131
303.15 K | 0.00186 | 0.00206 | 8.32e-06 | 3.83e-05 | 0.00022 | 0.00035 | 5.75e-05 | 0.00281 | 3.54e-05 | 0.000156
308.15 K | 0.00214 | 0.00239 | 9.74e-06 | 4.28e-05 | 0.00025 | 0.0004 | 7.4e-05 | 0.00341 | 4.5e-05 | 0.000207
313.15 K | 0.00258 | 0.00271 | 1.08e-05 | 5.13e-05 | – | 0.000473 | 0.0001 | 0.00413 | 5.17e-05 | 0.000241
318.15 K | 0.00285 | 0.00304 | 1.3e-05 | 6.02e-05 | – | 0.000546 | 0.000118 | 0.00467 | 7.26e-05 | 0.000317
323.15 K | 0.00316 | 0.00336 | 1.62e-05 | 6.85e-05 | – | 0.000627 | 0.00015 | 0.00524 | 8.92e-05 | 0.000384
